According to PMC4545932, “Inhibition by stabilization: targeting the Plasmodium falciparum aldolase–TRAP complex” (Malaria Journal, 2015):

Target: T1, rabbit muscle aldolase (Oryctolagus cuniculus, UniProt P00883)
T1 construct: gene ALDOA
T1 sequence (P00883 2-364): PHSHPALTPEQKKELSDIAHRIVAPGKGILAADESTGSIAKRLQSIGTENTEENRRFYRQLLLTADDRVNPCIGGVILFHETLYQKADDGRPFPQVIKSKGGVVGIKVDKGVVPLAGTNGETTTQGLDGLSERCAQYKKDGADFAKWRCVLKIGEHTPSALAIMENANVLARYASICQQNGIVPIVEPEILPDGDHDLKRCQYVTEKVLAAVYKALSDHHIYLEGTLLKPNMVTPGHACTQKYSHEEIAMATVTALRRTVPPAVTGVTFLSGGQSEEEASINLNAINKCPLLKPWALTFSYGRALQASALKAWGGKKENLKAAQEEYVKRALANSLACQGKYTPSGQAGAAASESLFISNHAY
Assay: coupled NADH assay (alpha-GDH/TPI), […] nm
Assay type: biochemical
Conditions: 2 mM F16P; pH 7.3; 25 °C; no TRAP peptide

## O=P(O)(O)OC[C@H]1OC(O)(COP(=O)(O)O)[C@@H](O)[C@@H]1O (stereo partly shown) [fructose 1,6-bisphosphate]
  coupled NADH assay (alpha-GDH/TPI), 340 nm: The assay was performed as described previously, however in the absence of TRAP-peptide
